Here are results for one compound from publication PMC9319837, “Microscale Thermophoresis and Molecular Modelling to Explore the Chelating Drug Transportation in the Milk to Infant” (Molecules, 2022).

For the experiment, the target named is T1, human Lf (lactoferrin) (Homo sapiens, UniProt P02788).
T1 construct: gene LTF; full-length, label-free
In words: label-free microscale thermophoresis (intrinsic fluorescence, […] nm). The experiment is classed as binding. Particulars: 0.1 M Tris pH 7.4; Lf 120 nM; CP20 7 nM to 250 μM; 10 min equilibration; iron saturation of Lf not stated. A general note: Microscale thermophoresis detects binding through changes in fluorescence in a small temperature gradient.

Each structure is given as a SMILES string.

T1 sequence (P02788 20-710): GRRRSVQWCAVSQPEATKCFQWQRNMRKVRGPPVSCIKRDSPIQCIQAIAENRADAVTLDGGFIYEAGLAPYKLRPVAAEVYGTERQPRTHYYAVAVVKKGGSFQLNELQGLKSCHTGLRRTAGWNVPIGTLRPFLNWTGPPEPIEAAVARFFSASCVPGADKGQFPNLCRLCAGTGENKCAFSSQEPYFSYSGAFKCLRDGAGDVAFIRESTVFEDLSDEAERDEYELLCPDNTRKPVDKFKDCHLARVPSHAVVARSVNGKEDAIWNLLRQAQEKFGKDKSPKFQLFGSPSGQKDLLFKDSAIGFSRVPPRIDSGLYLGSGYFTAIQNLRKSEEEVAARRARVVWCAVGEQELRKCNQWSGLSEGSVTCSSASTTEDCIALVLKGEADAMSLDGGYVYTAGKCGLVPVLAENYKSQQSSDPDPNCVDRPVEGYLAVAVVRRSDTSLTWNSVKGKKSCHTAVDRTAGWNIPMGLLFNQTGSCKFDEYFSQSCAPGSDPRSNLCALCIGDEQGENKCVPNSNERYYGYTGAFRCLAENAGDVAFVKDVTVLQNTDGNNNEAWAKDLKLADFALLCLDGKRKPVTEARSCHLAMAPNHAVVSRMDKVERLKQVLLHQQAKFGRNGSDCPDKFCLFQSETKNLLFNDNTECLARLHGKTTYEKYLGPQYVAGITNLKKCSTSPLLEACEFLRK

As for `Cc1c(O)c(=O)ccn1C` [deferiprone, 1,2-dimethyl-3-hydroxypyrid-4-one], the Kd is 8.9 × 10^−6 ± 1.6 Molar.
